Patent US20070105847A1, “1,3-Dioxane derivatives and analogues thereof useful in the treatment of i.a. obesity and diabetes” (priority 2004, published 2007)

Columns and labels:
Swiss albino mice = assay: Serum triglyceride and total cholesterol lowering activity in Swiss albino mice; type: in vivo; details: male Swiss albino mice, oral, 10 mg/kg/day for 6 days, 1 hour after dosing on 6th day
Description: • i) Serum triglyceride and total cholesterol lowering activity in Swiss albino mice:
Male Swiss albino mice (SAM) were bred in Zydus animal house. All these animals were maintained under 12 hour light and dark cycle at 25±1° C. Animals were given standard laboratory chow (NIN, Hyderabad, India) and water ad libitum. SAM of 20-30 g body weight range was used. The protocol approved by Institutional Animal Ethics Committee is being used.
The test compounds were administered orally to Swiss albino mice at 0.001 to 50 mg/kg/day dose for 6 days. The compound was administered after suspending it in 0.25% CMC or dissolving it in water, when compound is water-soluble. Control mice were treated with vehicle (0.25% of Carboxymethylcellulose; dose 10 ml/kg).
The blood samples were collected on 0th day and in fed state 1 hour after drug administration on 6th day of the treatment. The blood was collected in non heparinised capillary and the serum was analyzed for triglyceride and total cholesterol (Wieland, O. Methods of Enzymatic analysis. Bergermeyer, H., O., Ed., 1963. 211-214; Trinder, P. Ann. Clin. Biochem. 1969. 6: 24-27). Measurement of serum triglyceride and total cholesterol was done using commercial kits (Zydus-Cadila, Pathline, Ahmedabad, India).
Percentage reduction in triglycerides/total cholesterol were calculated according to the formula: [formula]
OC=Zero day control group value OT=Zero day treated group value TC=Test day control group TT=Test day treated group

[1] = tested on: Hamster of Syrian golden stain; assay: Serum triglyceride and total cholesterol lowering activity in Hamster of Syrian golden strain on HF-HC diet; type: in vivo; details: hamsters on HF-HC diet, po, 3 mg/kg/day for 15 days
From the text: ii) Surem triglyceride and total cholesterol lowering activity in Hamster of Syrian golden stain:
Male and Female Hamster of Syrian golden stain were bred in Zydus animal house. All these animals were maintained under 12-hour light and dark cycle at 22±3 degree C. The protocol approved by Institutional Animal Ethics Committee is being used. Two groups of animals were put on HF-HC (High fat and high cholesterol) diet for 14 days. On day 14 […] one group of animals of were put on normal diet for two weeks.
One group of animals on HF-HC diet were treated (po) with compounds of the present invention, at 0.001 to 50 mg/kg daily for 15 days while the other group received the vehicle. After 15 days blood samples. were be collected in non heparinized capillary from animals for determination of total cholesterol (TC), triglyceride (TG) (Wieland, O. Methods of Enzymatic analysis. Bergermeyer, H., O., Ed., 1963. 211-214; Trinder, P. Ann. Clin. Biochem. 1969. 6: 24-27). Measurement of serum triglyceride and total cholesterol was done using commercial kits (Pointe Scientific. Inc. USA.)
Percentage reduction in triglycerides/total cholesterol were calculated according to the formula:
• Percentage reduction (%)=(TT−TC)/TC*100
TC=Test day control group TT=Test day treated group.

| SMILES | % Triglyceride lowering (Swiss albino mice) [%] | % Triglyceride lowering [1] [%] |
| --- | --- | --- |
| CC1(C(=O)O)OCC(CCCCOc2ccc(Cc3ccccc3)cc2)CO1 (stereo not shown) [Example 38, 5-[4-(4-Benzyl-phenoxy)-butyl]-2-methyl-[1,3]dioxane-2-carboxylic acid] | 32 |  |
| CC1(C(=O)O)OCC(CCCCc2ccc(OCc3ccccc3)cc2)CO1 (stereo not shown) [Example 49, 5-[4-(4-Benzyloxy-phenyl)-butyl]-2-methyl-[1,3]dioxane-2-carboxylic acid] | 26 |  |
| CC1(C(=O)O)OCC(CCCCc2ccc(OS(C)(=O)=O)cc2)CO1 (stereo not shown) [Example 50, 5-[4-(4-Methanesulfonyloxy-phenyl)-butyl]-2-methyl-[1,3]dioxane-2-carboxylic acid] | 32 | 45 |
